In ChEMBL document CHEMBL4014296, “Constituents with potent α-glucosidase inhibitory activity from Pueraria lobata (Willd.) ohwi” (Bioorg Med Chem Lett, 2017):
Calls of active or inactive are those of the source. The calls are words filed in the database; no cut-off is given here.

Key:
[1] = Inhibition of alpha glucosidase (unknown origin) using alpha PNPG as substrate at 0.5 mg/mL preincubated for 15 mins followed by substrate addition measured after 15 mins relative to control; conditions: Homo sapiens
[2] = Inhibition of alpha glucosidase (unknown origin) using alpha PNPG as substrate preincubated for 15 mins followed by substrate addition measured after 15 mins; parameters: species or system Homo sapiens; conditions: for inhibition: Homo sapiens
[3] = Inhibition of alpha glucosidase (unknown origin) using alpha PNPG as substrate at 0.125 mg/mL preincubated for 15 mins followed by substrate addition measured after 15 mins relative to control; conditions: Homo sapiens
[4] = Inhibition of alpha glucosidase (unknown origin) using alpha PNPG as substrate at 0.25 mg/mL preincubated for 15 mins followed by substrate addition measured after 15 mins relative to control; conditions: Homo sapiens
[5] = Inhibition of alpha glucosidase (unknown origin) using alpha PNPG as substrate at 0.0625 mg/mL preincubated for 15 mins followed by substrate addition measured after 15 mins relative to control; conditions: Homo sapiens
Homo sapiens [6] = organism: Homo sapiens; assay: Inhibition of alpha glucosidase (unknown origin) using alpha PNPG as substrate at 1.25 mg/mL preincubated for 15 mins followed by substrate addition measured after 15 mins relative to control
Homo sapiens [7] = organism: Homo sapiens; assay: Inhibition of alpha glucosidase (unknown origin) using alpha PNPG as substrate at 4.88 10^-4mg/ml preincubated for 15 mins followed by substrate addition measured after 15 mins relative to control
Homo sapiens [8] = organism: Homo sapiens; assay: Inhibition of alpha glucosidase (unknown origin) using alpha PNPG as substrate at 0.00195 mg/mL preincubated for 15 mins followed by substrate addition measured after 15 mins relative to control
Homo sapiens [9] = organism: Homo sapiens; assay: Inhibition of alpha glucosidase (unknown origin) using alpha PNPG as substrate at 5 mg/mL preincubated for 15 mins followed by substrate addition measured after 15 mins relative to control
Homo sapiens [10] = organism: Homo sapiens; assay: Inhibition of alpha glucosidase (unknown origin) using alpha PNPG as substrate at 0.00391 mg/mL preincubated for 15 mins followed by substrate addition measured after 15 mins relative to control
Homo sapiens [11] = organism: Homo sapiens; assay: Inhibition of alpha glucosidase (unknown origin) using alpha PNPG as substrate at 9.77 10^-4mg/ml preincubated for 15 mins followed by substrate addition measured after 15 mins relative to control
Homo sapiens [12] = organism: Homo sapiens; assay: Inhibition of alpha glucosidase (unknown origin) using alpha PNPG as substrate at 2.5 mg/mL preincubated for 15 mins followed by substrate addition measured after 15 mins relative to control
Homo sapiens [13] = organism: Homo sapiens; assay: Inhibition of alpha glucosidase (unknown origin) using alpha PNPG as substrate at 10 mg/mL preincubated for 15 mins followed by substrate addition measured after 15 mins relative to control
[14] = Solubility of the compound; type: physicochemical
Homo sapiens [15] = organism: Homo sapiens; assay: Irreversible inhibition of alpha glucosidase (unknown origin) using alpha PNPG as substrate at 0.005 mg/mL
Homo sapiens [16] = organism: Homo sapiens; assay: Potency index, ratio of acarbose IC50 to compound IC50 for alpha glucosidase (unknown origin)
Homo sapiens [17] = organism: Homo sapiens; assay: Inhibition of alpha glucosidase (unknown origin) using alpha PNPG as substrate at 0.00781 mg/mL preincubated for 15 mins followed by substrate addition measured after 15 mins relative to control
Homo sapiens [18] = organism: Homo sapiens; assay: Reversible inhibition of alpha glucosidase (unknown origin) using alpha PNPG as substrate at 0.01 mg/mL
Homo sapiens [19] = organism: Homo sapiens; assay: Non-competitive inhibition of alpha glucosidase (unknown origin) using varying levels of alpha PNPG substrate at 0.01 mg/mL by Lineweaver-Burk plot analysis
Homo sapiens [20] = organism: Homo sapiens; assay: Inhibition of alpha glucosidase (unknown origin) using alpha PNPG as substrate at 0.01563 mg/mL preincubated for 15 mins followed by substrate addition measured after 15 mins relative to control
Homo sapiens [21] = organism: Homo sapiens; assay: Inhibition of alpha glucosidase (unknown origin) using alpha PNPG as substrate at 0.03125 mg/mL preincubated for 15 mins followed by substrate addition measured after 15 mins relative to control

SMILES: O=c1c(-c2ccc(O)cc2)coc2cc(O[C@@H]3O[C@H](CO)[C@@H](O)[C@H](O)[C@H]3O)ccc12 [DAIDZIN]
- inhibition [1]: 84.8%
- IC50 [2]: 178 to 254 µM
- inhibition [2]: Dose-dependent effect
- inhibition [3]: 66.8%
- inhibition [4]: 77.3%
- inhibition [5]: 41.2%

SMILES: COc1ccc(-c2coc3cc(O[C@@H]4O[C@H](CO)[C@@H](O)[C@H](O)[C@H]4O)ccc3c2=O)cc1 [ONONIN]
- inhibition [1]: 74.9%
- IC50 [2]: 423 µM
- inhibition [2]: Dose-dependent effect
- inhibition [3]: 31.6%
- inhibition [4]: 56.3%
- inhibition [5]: 29.4%

SMILES: C[C@H]1O[C@H](O[C@H]2[C@H](O)[C@@H](O)[C@@H](O[C@H]3[C@H](O)[C@@H](O)C(O)O[C@@H]3CO)O[C@@H]2CO)[C@H](O)[C@@H](O)[C@@H]1N[C@H]1C=C(CO)[C@@H](O)[C@H](O)[C@H]1O (stereo partly drawn) [ACARBOSE]
- inhibition (Homo sapiens [6]): 42.2%
- IC50 [2]: 2000 µM
- inhibition [2]: Dose-dependent effect
- inhibition (Homo sapiens [7]): 17.7%
- inhibition (Homo sapiens [8]): 85.6%
- inhibition (Homo sapiens [9]): 58.4%
- inhibition (Homo sapiens [10]): 89.5%
- inhibition (Homo sapiens [11]): 79.7%
- inhibition (Homo sapiens [12]): 51.1%
- inhibition (Homo sapiens [13]): 82.2%

SMILES: CC1(C)C=Cc2cc3c(cc2O1)O[C@@H]1c2ccc(O)cc2OC[C@@]31O
- inhibition [1]: 86%
- IC50 [2]: 182 to 379 µM
- inhibition [2]: Dose-dependent effect
- inhibition [3]: 49.9%
- inhibition [4]: 60.1%
- inhibition [5]: 42.5%

SMILES: COc1ccc2c(=O)cc(C(O)Cc3ccc(O)cc3)oc2c1 (stereo not drawn)
- solubility [14]: Insoluble

SMILES: CC(C)=CCC/C(C)=C/Cc1cc2c3c(oc2cc1O)C(O)(O)c1ccc(O)cc1O3
- IC50 [2]: 1.79 µM
- inhibition [2]: Dose-dependent effect
- inhibition (Homo sapiens [15]): Active
- Ratio IC50 (Homo sapiens [16]): 1120

SMILES: O=c1c(-c2ccc(O)cc2)coc2cc(O)ccc12 [DAIDZEIN]
- IC50 [2]: 23 µM
- inhibition [2]: Dose-dependent effect
- inhibition (Homo sapiens [10]): 34.3%
- inhibition (Homo sapiens [17]): 57.1%
- inhibition (Homo sapiens [18]): Active
- Ratio IC50 (Homo sapiens [16]): 87
- inhibition (Homo sapiens [19]): Active
- inhibition (Homo sapiens [20]): 59%
- inhibition (Homo sapiens [21]): 72.8%

SMILES: O=c1c(-c2ccc(O)cc2)coc2c([C@@H]3O[C@H](CO)[C@@H](O)[C@H](O)[C@H]3O)c(O)ccc12 [PUERARIN]
- inhibition [1]: 78.3%
- IC50 [2]: 524 µM
- inhibition [2]: Dose-dependent effect
- inhibition [3]: 21.9%
- inhibition [4]: 41.5%
- inhibition [5]: 5.26%
